In the kinase profiling compilation of Christmann-Franck et al. (2016):

Tests used:
Assay in all cases: KINOMEscan competition binding
Conditions in all cases: compound 10.0 µM
CAMKK1 (human) = CAMKK1 (human) (UniProt Q8N5S9)
CDC42BPB (human) = CDC42BPB (human) (UniProt Q9Y5S2)
CDK11B (human) = CDK11B (human) (UniProt P21127)
CDK15 (human) = CDK15 (human) (UniProt Q96Q40)
CDK16 (human) = CDK16 (human) (UniProt Q00536)
CDK18 (human) = CDK18 (human) (UniProt Q07002)
CDK8 (human) = CDK8 (human) (UniProt P49336)
CDKL2 (human) = CDKL2 (human) (UniProt Q92772)
CHUK (human) = CHUK (human) (UniProt O15111)
CLK4 (human) = CLK4 (human) (UniProt Q9HAZ1)
CSNK1D (human) = CSNK1D (human) (UniProt P48730)
DAPK3 (human) = DAPK3 (human) (UniProt O43293)
EPHA1 (human) = EPHA1 (human) (UniProt P21709)
[1] = test system: FLT3 (human), P36888 [N841I]
GSK3B (human) = GSK3B (human) (UniProt P49841)
GSK3B (human), sequence (P49841 whole entry, looked up): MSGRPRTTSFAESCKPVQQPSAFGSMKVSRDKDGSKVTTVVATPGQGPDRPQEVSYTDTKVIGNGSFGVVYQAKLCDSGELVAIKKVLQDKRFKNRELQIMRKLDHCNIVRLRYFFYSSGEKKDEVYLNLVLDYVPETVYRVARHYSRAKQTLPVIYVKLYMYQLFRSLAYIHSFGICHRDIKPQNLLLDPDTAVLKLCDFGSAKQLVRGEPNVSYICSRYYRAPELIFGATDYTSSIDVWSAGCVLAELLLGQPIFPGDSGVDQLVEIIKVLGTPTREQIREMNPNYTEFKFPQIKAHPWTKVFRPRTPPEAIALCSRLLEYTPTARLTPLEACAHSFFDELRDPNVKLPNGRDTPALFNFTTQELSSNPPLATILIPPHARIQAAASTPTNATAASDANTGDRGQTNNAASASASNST

IRAK3 (human) = IRAK3 (human) (UniProt Q9Y616)
LIMK1 (human) = LIMK1 (human) (UniProt P53667)
MAP3K4 (human) = MAP3K4 (human) (UniProt Q9Y6R4)
MAPK11 (human) = MAPK11 (human) (UniProt Q15759)
MAPKAPK2 (human) = MAPKAPK2 (human) (UniProt P49137)
MERTK (human) = MERTK (human) (UniProt Q12866)
MKNK1 (human) = MKNK1 (human) (UniProt Q9BUB5)
PAK1 (human) = PAK1 (human) (UniProt Q13153)
PDGFRA (human) = PDGFRA (human) (UniProt P16234)
PDGFRA (human), sequence (P16234 whole entry, looked up): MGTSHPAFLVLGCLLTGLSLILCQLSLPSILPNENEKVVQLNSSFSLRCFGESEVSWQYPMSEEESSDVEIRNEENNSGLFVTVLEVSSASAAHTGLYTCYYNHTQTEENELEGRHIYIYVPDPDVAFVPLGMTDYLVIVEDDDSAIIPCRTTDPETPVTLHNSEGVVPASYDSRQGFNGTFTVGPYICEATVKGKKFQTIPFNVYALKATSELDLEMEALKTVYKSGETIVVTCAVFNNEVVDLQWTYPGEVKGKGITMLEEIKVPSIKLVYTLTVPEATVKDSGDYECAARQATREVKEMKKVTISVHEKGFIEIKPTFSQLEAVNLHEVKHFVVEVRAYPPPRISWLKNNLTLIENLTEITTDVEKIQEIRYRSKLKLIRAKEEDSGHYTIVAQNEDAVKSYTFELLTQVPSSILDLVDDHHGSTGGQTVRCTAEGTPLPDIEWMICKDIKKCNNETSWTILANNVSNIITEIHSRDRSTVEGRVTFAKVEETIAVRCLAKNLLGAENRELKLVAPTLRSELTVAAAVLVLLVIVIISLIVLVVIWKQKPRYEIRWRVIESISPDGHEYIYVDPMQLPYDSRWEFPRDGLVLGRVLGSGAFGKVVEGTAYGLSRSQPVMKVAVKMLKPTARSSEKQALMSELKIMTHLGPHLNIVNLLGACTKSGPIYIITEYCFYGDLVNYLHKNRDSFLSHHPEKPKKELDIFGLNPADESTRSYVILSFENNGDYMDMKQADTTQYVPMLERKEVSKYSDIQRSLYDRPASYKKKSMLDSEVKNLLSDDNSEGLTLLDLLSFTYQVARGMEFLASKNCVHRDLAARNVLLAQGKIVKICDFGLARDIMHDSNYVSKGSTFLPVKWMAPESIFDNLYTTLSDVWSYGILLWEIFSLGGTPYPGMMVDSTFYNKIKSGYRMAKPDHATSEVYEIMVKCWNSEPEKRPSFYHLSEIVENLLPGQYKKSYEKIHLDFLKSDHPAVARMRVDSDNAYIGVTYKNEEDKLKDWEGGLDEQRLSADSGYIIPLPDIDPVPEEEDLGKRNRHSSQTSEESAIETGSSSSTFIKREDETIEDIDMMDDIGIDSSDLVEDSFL

PIK3CD (human) = PIK3CD (human) (UniProt O00329)
PIM1 (human) = PIM1 (human) (UniProt P11309)
PRKD2 (human) = PRKD2 (human) (UniProt Q9BZL6)
PRKX (human) = PRKX (human) (UniProt P51817)
RAF1 (human) = RAF1 (human) (UniProt P04049)
RAF1 (human), sequence (P04049 whole entry, looked up): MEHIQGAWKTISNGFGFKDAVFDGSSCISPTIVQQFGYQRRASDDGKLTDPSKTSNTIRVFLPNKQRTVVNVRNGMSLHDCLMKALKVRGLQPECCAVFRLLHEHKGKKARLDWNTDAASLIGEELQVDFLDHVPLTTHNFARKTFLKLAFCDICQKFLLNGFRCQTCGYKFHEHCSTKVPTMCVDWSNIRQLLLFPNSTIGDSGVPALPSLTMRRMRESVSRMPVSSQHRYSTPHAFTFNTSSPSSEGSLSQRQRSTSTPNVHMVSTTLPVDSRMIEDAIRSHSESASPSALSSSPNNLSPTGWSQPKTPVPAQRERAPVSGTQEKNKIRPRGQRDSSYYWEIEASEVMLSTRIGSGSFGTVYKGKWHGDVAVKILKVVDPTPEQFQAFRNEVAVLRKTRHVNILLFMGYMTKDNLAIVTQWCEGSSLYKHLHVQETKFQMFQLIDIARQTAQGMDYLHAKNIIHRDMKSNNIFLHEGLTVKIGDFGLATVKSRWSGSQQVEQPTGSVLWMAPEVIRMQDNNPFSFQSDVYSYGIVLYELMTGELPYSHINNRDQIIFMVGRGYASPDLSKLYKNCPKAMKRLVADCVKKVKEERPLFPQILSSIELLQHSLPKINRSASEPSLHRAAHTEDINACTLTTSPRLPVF

RET (human) = RET (human) (UniProt P07949)
RIOK1 (human) = RIOK1 (human) (UniProt Q9BRS2)
RPS6KA2 KD1 (human) = RPS6KA2 KD1 (human) (UniProt Q15349)
SRC (human) = SRC (human) (UniProt P12931)
STK10 (human) = STK10 (human) (UniProt O94804)
STK10 (human), sequence (O94804 whole entry, looked up): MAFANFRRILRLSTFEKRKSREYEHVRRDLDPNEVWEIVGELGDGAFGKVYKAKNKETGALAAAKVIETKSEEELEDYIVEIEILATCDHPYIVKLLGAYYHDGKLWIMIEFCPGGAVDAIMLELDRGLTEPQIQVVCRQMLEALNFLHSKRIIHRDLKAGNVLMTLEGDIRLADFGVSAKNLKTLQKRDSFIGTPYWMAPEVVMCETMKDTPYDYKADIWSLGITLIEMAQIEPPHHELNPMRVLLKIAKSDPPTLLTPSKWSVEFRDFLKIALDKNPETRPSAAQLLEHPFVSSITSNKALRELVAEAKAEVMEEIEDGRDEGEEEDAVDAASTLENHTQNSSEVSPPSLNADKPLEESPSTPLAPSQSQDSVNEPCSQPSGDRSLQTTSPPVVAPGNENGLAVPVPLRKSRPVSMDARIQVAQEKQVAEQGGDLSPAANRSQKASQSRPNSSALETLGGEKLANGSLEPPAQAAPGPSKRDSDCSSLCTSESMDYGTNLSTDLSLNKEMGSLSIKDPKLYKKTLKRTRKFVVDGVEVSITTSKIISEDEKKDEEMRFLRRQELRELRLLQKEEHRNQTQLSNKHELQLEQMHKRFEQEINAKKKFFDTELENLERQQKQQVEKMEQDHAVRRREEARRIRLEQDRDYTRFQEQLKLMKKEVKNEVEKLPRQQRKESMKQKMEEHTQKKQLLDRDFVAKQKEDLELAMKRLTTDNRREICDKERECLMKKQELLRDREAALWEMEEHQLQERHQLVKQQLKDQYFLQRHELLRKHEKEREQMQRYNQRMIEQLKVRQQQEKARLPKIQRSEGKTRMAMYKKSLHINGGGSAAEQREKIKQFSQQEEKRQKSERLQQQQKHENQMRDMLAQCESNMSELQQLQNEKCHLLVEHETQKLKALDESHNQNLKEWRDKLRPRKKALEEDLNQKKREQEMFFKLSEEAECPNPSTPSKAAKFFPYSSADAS

STK3 (human) = STK3 (human) (UniProt Q13188)
STK33 (human) = STK33 (human) (UniProt Q9BYT3)
STK35 (human) = STK35 (human) (UniProt Q8TDR2)
STK4 (human) = STK4 (human) (UniProt Q13043)
STK4 (human), sequence (Q13043 whole entry, looked up): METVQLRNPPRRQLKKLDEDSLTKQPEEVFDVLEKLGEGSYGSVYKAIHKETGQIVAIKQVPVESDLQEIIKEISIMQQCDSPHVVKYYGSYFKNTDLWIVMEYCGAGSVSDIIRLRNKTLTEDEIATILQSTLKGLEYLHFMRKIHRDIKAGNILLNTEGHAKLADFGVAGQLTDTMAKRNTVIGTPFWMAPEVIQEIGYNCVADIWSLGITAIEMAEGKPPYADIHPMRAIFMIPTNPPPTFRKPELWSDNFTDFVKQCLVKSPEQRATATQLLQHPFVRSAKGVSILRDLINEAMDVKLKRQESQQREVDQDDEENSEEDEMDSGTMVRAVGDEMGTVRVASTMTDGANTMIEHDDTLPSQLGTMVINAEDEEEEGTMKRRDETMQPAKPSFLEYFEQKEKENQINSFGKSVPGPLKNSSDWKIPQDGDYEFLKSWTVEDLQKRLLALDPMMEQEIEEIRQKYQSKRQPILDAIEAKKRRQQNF

SYK (human) = SYK (human) (UniProt P43405)
TYRO3 (human) = TYRO3 (human) (UniProt Q06418)

CAMKK1 (human), sequence (Q8N5S9 whole entry, looked up): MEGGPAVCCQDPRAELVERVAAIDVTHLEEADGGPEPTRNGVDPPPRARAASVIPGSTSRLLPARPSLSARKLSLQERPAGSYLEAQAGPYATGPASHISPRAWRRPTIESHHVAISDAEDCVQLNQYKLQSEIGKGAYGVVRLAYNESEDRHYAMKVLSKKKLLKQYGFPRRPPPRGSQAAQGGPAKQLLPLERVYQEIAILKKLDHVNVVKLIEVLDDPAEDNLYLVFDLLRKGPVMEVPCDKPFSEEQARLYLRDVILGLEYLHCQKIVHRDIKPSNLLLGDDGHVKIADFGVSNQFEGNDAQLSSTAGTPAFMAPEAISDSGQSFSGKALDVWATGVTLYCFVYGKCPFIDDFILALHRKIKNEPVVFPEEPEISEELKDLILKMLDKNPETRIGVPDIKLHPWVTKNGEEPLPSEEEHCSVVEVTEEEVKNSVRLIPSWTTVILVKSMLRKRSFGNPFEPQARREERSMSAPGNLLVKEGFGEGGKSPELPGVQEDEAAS
CDK15 (human), sequence (Q96Q40 whole entry, looked up): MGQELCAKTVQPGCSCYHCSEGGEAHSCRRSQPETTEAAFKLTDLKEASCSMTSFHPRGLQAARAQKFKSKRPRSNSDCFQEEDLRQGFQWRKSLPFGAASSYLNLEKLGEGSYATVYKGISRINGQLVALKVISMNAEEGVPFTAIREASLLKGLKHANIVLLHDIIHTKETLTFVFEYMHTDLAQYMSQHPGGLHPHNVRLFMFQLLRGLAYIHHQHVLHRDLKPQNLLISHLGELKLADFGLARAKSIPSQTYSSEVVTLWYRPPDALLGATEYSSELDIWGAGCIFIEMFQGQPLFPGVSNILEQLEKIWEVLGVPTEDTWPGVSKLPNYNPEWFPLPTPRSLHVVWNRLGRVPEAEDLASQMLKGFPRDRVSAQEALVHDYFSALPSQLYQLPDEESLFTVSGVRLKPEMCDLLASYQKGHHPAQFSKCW
CDK18 (human), sequence (Q07002 whole entry, looked up): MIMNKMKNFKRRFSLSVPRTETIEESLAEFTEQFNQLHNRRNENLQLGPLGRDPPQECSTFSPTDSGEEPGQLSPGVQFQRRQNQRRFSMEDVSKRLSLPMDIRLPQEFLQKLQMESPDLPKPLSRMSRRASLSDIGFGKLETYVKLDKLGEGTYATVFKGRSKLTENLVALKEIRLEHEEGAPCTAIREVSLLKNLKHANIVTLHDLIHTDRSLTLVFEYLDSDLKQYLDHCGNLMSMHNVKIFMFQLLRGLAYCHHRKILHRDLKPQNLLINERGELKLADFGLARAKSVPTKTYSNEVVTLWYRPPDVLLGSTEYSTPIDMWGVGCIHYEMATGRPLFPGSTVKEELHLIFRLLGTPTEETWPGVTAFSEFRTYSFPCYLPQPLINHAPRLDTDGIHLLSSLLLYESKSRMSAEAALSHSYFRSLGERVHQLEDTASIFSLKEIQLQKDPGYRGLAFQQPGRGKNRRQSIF

Compound | kinase still bound, per cent of control (CAMKK1 (human)) [%] | kinase still bound, per cent of control (CDC42BPB (human)) [%] | kinase still bound, per cent of control (CDK11B (human)) [%] | kinase still bound, per cent of control (CDK15 (human)) [%] | kinase still bound, per cent of control (CDK16 (human)) [%] | kinase still bound, per cent of control (CDK18 (human)) [%] | kinase still bound, per cent of control (CDK8 (human)) [%] | kinase still bound, per cent of control (CDKL2 (human)) [%] | kinase still bound, per cent of control (CHUK (human)) [%] | kinase still bound, per cent of control (CLK4 (human)) [%] | kinase still bound, per cent of control (CSNK1D (human)) [%] | kinase still bound, per cent of control (DAPK3 (human)) [%] | kinase still bound, per cent of control (EPHA1 (human)) [%] | kinase still bound, per cent of control [1] [%] | kinase still bound, per cent of control (GSK3B (human)) [%] | kinase still bound, per cent of control (IRAK3 (human)) [%] | kinase still bound, per cent of control (LIMK1 (human)) [%] | kinase still bound, per cent of control (MAP3K4 (human)) [%] | kinase still bound, per cent of control (MAPK11 (human)) [%] | kinase still bound, per cent of control (MAPKAPK2 (human)) [%] | further results
CCN1CCN(Cc2ccc(Nc3ncc4c(n3)N(C)c3ccccc3C(=O)N4C)cc2C(F)(F)F)CC1 | 79 | 99 | 99 | 76 | 92 | 97 | 94 | 80 | 100 | 100 | 32 | 79 | 61 | 21 | 47 | 69 | 52 | 81 | 82 | 100 | kinase still bound, per cent of control (MERTK (human)): 48%; kinase still bound, per cent of control (MKNK1 (human)): 100%; kinase still bound, per cent of control (PAK1 (human)): 86%; kinase still bound, per cent of control (PDGFRA (human)): 100%; kinase still bound, per cent of control (PIK3CD (human)): 0%; kinase still bound, per cent of control (PIM1 (human)): 86%; kinase still bound, per cent of control (PRKD2 (human)): 25%; kinase still bound, per cent of control (PRKX (human)): 100%; kinase still bound, per cent of control (RAF1 (human)): 100%; kinase still bound, per cent of control (RET (human)): 2.4%; kinase still bound, per cent of control (RIOK1 (human)): 33%; kinase still bound, per cent of control (RPS6KA2 KD1 (human)): 37%; kinase still bound, per cent of control (SRC (human)): 2%; kinase still bound, per cent of control (STK10 (human)): 28%; kinase still bound, per cent of control (STK3 (human)): 8.1%; kinase still bound, per cent of control (STK33 (human)): 36%; kinase still bound, per cent of control (STK35 (human)): 76%; kinase still bound, per cent of control (STK4 (human)): 72%; kinase still bound, per cent of control (SYK (human)): 78%; kinase still bound, per cent of control (TYRO3 (human)): 92%
CCC(=O)N1CCN(c2ccc(-n3c(=O)ccc4cnc5ccc(-c6cnc7ccccc7c6)cc5c43)cc2C(F)(F)F)CC1 | 80 | 3.4 | 97 | 88 | 91 | 97 | 4.6 | 58 | 41 | 49 | 4.3 | 82 | 62 | 8.8 | 100 | 27 | 15 | 47 | 53 | 100 | kinase still bound, per cent of control (MERTK (human)): 53%; kinase still bound, per cent of control (MKNK1 (human)): 44%; kinase still bound, per cent of control (PAK1 (human)): 73%; kinase still bound, per cent of control (PDGFRA (human)): 63%; kinase still bound, per cent of control (PIK3CD (human)): 51%; kinase still bound, per cent of control (PIM1 (human)): 80%; kinase still bound, per cent of control (PRKD2 (human)): 100%; kinase still bound, per cent of control (PRKX (human)): 83%; kinase still bound, per cent of control (RAF1 (human)): 48%; kinase still bound, per cent of control (RET (human)): 44%; kinase still bound, per cent of control (RIOK1 (human)): 81%; kinase still bound, per cent of control (RPS6KA2 KD1 (human)): 100%; kinase still bound, per cent of control (SRC (human)): 95%; kinase still bound, per cent of control (STK10 (human)): 79%; kinase still bound, per cent of control (STK3 (human)): 24%; kinase still bound, per cent of control (STK33 (human)): 90%; kinase still bound, per cent of control (STK35 (human)): 18%; kinase still bound, per cent of control (STK4 (human)): 7.6%; kinase still bound, per cent of control (SYK (human)): 78%; kinase still bound, per cent of control (TYRO3 (human)): 31%
Cc1ccc(C(=O)Nc2cccc(C(F)(F)F)c2)cc1Nc1cncc(C(N)=O)c1 | 100 | 100 | 100 | 100 | 100 | 100 | 100 | 100 | 100 | 100 | 100 | 100 | 100 | 100 | 100 | 100 | 100 | 100 | 100 | 100 | kinase still bound, per cent of control (MERTK (human)): 100%; kinase still bound, per cent of control (MKNK1 (human)): 100%; kinase still bound, per cent of control (PAK1 (human)): 100%; kinase still bound, per cent of control (PDGFRA (human)): 0.2%; kinase still bound, per cent of control (PIK3CD (human)): 100%; kinase still bound, per cent of control (PIM1 (human)): 100%; kinase still bound, per cent of control (PRKD2 (human)): 100%; kinase still bound, per cent of control (PRKX (human)): 100%; kinase still bound, per cent of control (RAF1 (human)): 4.5%; kinase still bound, per cent of control (RET (human)): 100%; kinase still bound, per cent of control (RIOK1 (human)): 100%; kinase still bound, per cent of control (RPS6KA2 KD1 (human)): 100%; kinase still bound, per cent of control (SRC (human)): 100%; kinase still bound, per cent of control (STK10 (human)): 100%; kinase still bound, per cent of control (STK3 (human)): 100%; kinase still bound, per cent of control (STK33 (human)): 100%; kinase still bound, per cent of control (STK35 (human)): 100%; kinase still bound, per cent of control (STK4 (human)): 100%; kinase still bound, per cent of control (SYK (human)): 100%; kinase still bound, per cent of control (TYRO3 (human)): 100%
